{
  "source": "paper PMC11946908",
  "about": "“Plasmodium blood stage development requires the chromatin remodeller Snf2L” (Nature, 2025)",
  "assay_type_in_all_cases": "biochemical",
  "key": {"HsSNF2L": {"target": "T1, HsSNF2L (Homo sapiens, UniProt P28370)", "T1 construct": "gene SMARCA1; 6xHis tag, baculovirus, Sf21 insect cells", "T1 sequence (P28370 whole entry)": "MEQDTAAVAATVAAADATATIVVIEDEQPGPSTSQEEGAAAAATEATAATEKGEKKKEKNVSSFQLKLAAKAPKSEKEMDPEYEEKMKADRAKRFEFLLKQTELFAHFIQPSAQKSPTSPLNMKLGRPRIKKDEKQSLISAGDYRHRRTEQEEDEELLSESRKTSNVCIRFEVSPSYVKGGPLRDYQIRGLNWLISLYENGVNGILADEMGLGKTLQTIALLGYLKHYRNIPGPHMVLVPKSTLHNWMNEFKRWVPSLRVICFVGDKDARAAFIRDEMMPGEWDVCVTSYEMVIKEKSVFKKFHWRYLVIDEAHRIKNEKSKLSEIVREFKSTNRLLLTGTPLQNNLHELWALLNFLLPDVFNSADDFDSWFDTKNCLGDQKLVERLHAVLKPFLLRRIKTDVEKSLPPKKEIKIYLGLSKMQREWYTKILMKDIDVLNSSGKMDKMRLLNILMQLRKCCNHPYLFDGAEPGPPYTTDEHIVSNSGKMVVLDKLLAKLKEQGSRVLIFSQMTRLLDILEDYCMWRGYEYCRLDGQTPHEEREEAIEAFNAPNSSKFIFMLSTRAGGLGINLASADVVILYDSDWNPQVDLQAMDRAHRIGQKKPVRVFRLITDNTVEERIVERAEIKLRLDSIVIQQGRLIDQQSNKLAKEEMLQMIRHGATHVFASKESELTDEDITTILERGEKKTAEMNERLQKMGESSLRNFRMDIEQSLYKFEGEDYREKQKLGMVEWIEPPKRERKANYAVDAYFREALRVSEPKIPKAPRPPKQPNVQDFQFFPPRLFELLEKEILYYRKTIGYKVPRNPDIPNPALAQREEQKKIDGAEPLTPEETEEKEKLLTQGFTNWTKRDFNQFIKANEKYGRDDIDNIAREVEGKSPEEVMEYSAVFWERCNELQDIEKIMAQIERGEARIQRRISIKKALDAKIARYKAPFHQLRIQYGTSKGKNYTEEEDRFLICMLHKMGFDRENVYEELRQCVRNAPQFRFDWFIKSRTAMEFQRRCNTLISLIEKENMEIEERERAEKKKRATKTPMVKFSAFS", "assay": "[…]-gamma-ATP hydrolysis, thin-layer chromatography", "details": "500 µM ATP, 1.5 mM MgCl2, pH 7.6, 30 °C, with or without mononucleosomes"}, "PfSnf2L [1]": {"target": "T2, PfSnf2L (Plasmodium falciparum, UniProt Q8IIW0)", "T2 construct": "gene PF3D7_1104200; amino acids 250-1426, C-terminal 10xHis tag, baculovirus, Sf21 insect cells", "T2 sequence (Q8IIW0 250-1426)": "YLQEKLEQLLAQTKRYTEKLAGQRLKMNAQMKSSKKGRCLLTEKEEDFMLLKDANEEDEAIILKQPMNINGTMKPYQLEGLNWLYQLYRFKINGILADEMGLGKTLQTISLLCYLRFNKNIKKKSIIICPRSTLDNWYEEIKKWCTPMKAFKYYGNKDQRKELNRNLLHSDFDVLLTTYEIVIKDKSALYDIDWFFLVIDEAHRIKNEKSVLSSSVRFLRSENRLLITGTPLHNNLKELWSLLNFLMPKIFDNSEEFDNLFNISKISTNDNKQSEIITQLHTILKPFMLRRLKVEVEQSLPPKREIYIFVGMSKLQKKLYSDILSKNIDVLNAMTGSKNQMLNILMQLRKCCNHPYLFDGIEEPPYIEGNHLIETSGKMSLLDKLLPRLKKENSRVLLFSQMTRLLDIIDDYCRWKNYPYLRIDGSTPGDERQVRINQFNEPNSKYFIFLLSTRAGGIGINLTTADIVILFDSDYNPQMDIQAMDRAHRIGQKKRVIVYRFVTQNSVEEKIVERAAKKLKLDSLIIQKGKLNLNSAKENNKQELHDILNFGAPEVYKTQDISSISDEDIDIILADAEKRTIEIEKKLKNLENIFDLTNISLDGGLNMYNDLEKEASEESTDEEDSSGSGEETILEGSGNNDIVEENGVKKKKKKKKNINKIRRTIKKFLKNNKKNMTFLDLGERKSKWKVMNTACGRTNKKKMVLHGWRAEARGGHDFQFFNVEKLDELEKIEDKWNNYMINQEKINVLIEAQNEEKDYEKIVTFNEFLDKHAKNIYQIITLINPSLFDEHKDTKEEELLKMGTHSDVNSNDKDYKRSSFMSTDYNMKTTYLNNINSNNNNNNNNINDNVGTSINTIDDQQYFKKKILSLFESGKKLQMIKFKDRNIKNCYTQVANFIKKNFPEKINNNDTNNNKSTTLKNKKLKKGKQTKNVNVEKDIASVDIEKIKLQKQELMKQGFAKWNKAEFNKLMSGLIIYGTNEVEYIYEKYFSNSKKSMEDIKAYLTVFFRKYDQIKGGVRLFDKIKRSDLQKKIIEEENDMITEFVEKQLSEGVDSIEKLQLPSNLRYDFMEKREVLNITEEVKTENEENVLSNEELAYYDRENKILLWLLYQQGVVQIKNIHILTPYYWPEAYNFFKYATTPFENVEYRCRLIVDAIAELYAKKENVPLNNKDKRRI", "assay": "[…]-gamma-ATP hydrolysis, thin-layer chromatography", "details": "500 µM ATP, 1.5 mM MgCl2, pH 7.6, 30 °C, with or without mononucleosomes"}, "PfSnf2L [2]": {"target": "T2, PfSnf2L", "assay": "ADP biosensor (TMR-ParM) ATPase assay, single dose response", "details": "0.4 µM enzyme, 125 µM ATP, plasmid DNA, 5 µM H4 peptide, 1.5 mM MgCl2, pH 8.6, 28 °C; allosteric"}},
  "data": [
    {"smiles": "Nc1ncnc2c1ncn2[C@@H]1O[C@H](COP(=O)(O)OP(=O)(O)OP(=O)(O)O)[C@@H](O)[C@H]1O", "note": "[ATP]", "values": [
      {"measurement": "32P-gamma-ATP hydrolysis, thin-layer chromatography", "setting": "HsSNF2L", "value": "The non-stimulated or nucleosome-stimulated ATP hydrolysis rate of PfSnf2L/HsSNF2L"},
      {"measurement": "32P-gamma-ATP hydrolysis, thin-layer chromatography", "setting": "PfSnf2L [1]", "value": "The non-stimulated or nucleosome-stimulated ATP hydrolysis rate of PfSnf2L/HsSNF2L"}
    ]},
    {"smiles": "CCCCCCCCCCCCCCCC[n+]1ccn(Cc2ccccc2)c1C", "note": "[NH125]", "values": [
      {"measurement": "ADP biosensor (TMR-ParM) ATPase assay, single dose response", "setting": "PfSnf2L [2]", "value": "ATP hydrolysis kinetic of PfSnf2L in presence of NH125 in varying concentrations"}
    ]}
  ]
}
